In patent US9926324B2, “Heteroaromatic compounds as PI3 kinase modulators and methods of use” (Calitor Sciences, LLC, priority 2012, dated 2018):

Key:
[1] = Pharmacokinetic profiles in rats after intravenous and oral administration; format: in vivo; conditions: for F: oral dose generally 5 or 10 mg/kg; for AUC(0-t) / half-life / Vd: rat, plasma; for Vd: read-out: Vss
Protocol: (§1) The compounds disclosed herein are assessed in pharmacokinetic studies in mice, rats, dogs or monkeys. The compounds are administered as a water solution, 2% HPMC+1% TWEEN® 80 in water solution, 5% DMSO+5% solutol in saline, 4% MC suspension or capsule. For the intravenous administration, the animals are generally given at 1 or 2 mg/kg dose. For the oral (p.o.) dosing, mice and rats are generally given 5 or 10 mg/kg dose, and dogs and monkeys are generally given 10 mg/kg dose. The blood samples (0.3 mL) are drawn at 0.25, 0.5, 1.0, 2.0, 3.0, 4.0, 6.0, 8.0, 12 and 24 h time points or 0.083, 0.25, 0.5, 1.0, 2.0, 4.0, 6.0, 8.0 and 24 h time points and centrifuged at 3,000 or 4000 rpm for 2 to 10 min. The plasma solutions are collected, stored at −20° C. or −70° C. until analyzed by LC/MS/MS as described above.

mTOR (h) = target: T1, mTOR (h) (Homo sapiens, UniProt P42345); assay: mTOR (h) kinase assay (33P-ATP, filter); format: biochemical
T1 construct: purchased Millipore UK Ltd (assay service)
Protocol: mTOR (h) is incubated with 50 mM HEPES pH 7.5, 1 mM EDTA, 0.01% Tween 20, 2 mg/mL substrate, 3 mM Manganese Chloride and [γ-^33P-ATP] (specific activity approx. 500 cpm/pmol, concentration as required). The reaction is initiated by the addition of the MnATP mix. After incubation for 40 minutes at room temperature, the reaction is stopped by the addition of 3% phosphoric acid solution. 10 μL of the reaction is then spotted onto a P30 filtermat and washed three times for 5 minutes in 75 mM phosphoric acid and once in methanol prior to drying and scintillation counting.
(§2) The kinase assays described herein were performed at Millipore UK Ltd, Dundee Technology Park, Dundee DD2 1SW, UK.

PI3K p110α/p85α (h) = target: T2, PI3K p110α/p85α (h) (Homo sapiens, UniProt P42336); assay: PI3K p110α/p85α (h) non-radioactive HTRF assay; format: biochemical
T2 construct: purchased Millipore UK Ltd (assay service)
T2 sequence (P42336 whole entry): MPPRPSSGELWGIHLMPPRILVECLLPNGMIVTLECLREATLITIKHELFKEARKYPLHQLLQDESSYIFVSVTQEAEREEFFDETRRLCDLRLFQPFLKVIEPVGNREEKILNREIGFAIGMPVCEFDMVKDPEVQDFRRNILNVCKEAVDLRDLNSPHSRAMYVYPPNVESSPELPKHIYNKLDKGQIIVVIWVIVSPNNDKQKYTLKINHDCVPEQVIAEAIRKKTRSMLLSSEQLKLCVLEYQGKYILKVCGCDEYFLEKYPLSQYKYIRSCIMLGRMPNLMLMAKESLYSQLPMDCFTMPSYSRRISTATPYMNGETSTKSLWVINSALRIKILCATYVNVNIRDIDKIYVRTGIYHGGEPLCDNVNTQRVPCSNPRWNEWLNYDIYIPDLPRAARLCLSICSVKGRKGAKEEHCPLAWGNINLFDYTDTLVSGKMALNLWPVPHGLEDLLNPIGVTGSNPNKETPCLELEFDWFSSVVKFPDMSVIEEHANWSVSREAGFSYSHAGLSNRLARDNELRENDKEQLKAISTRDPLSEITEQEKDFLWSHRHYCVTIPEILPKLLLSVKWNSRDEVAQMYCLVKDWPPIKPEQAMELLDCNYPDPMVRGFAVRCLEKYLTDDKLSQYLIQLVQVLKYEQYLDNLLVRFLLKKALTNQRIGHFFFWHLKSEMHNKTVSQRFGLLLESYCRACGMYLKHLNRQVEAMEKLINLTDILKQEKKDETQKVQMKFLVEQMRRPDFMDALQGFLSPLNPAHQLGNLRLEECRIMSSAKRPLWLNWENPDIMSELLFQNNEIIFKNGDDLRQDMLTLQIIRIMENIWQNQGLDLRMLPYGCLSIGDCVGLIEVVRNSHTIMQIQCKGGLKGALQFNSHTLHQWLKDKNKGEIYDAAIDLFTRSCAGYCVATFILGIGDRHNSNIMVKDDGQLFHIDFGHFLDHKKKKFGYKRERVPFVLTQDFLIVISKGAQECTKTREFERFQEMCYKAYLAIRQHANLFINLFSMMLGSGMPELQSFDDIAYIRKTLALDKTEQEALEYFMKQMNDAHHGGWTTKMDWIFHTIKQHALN
T2 sequence (P27986 whole entry partner): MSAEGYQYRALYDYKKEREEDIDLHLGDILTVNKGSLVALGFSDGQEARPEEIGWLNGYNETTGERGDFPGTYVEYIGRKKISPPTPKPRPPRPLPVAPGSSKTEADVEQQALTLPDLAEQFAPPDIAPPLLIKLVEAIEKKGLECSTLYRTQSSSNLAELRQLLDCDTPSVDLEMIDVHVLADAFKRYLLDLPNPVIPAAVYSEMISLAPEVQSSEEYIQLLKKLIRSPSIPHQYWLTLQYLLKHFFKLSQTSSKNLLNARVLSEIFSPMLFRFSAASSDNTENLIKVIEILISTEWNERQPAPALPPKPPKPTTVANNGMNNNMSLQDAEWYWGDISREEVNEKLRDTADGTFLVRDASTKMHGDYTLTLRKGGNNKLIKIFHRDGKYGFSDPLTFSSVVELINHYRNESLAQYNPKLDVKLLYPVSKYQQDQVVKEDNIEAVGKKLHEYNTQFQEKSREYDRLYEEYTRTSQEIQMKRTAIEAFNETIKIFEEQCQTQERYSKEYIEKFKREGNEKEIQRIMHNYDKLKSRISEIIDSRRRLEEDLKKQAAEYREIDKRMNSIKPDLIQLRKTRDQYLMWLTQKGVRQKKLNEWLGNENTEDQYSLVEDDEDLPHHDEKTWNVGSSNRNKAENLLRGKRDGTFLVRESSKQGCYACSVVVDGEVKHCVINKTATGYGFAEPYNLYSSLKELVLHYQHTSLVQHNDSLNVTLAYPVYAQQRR
Protocol: (§3) PI3K p110α/p85α (h) is incubated in assay buffer containing 10 μM phosphatidylinositol 4,5-bisphosphate and MgATP (concentration as required). The reaction is initiated by the addition of the ATP solution. After incubation for 30 minutes at room temperature, the reaction is stopped by the addition of stop solution containing EDTA and biotinylated phosphatidylinositol-3,4,5-trisphosphate. Finally, detection buffer is added, which contains europium-labelled anti-GST monoclonal antibody, GST-tagged GRP1 PH domain and streptavidin allophycocyanin. The plate is then read in timeresolved fluorescence mode and the homogenous time-resolved fluorescence (HTRF) signal is determined according to the formula HTRF=10000×(Em665 nm/Em620 nm).
as §2

PI3K (p110δ/p85α) (h) = target: T3, PI3K (p110δ/p85α) (h) (Homo sapiens, UniProt O00329); assay: PI3K p110δ/p85α (h) non-radioactive HTRF assay; format: biochemical
T3 construct: purchased Millipore UK Ltd (assay service)
T3 sequence (O00329 whole entry): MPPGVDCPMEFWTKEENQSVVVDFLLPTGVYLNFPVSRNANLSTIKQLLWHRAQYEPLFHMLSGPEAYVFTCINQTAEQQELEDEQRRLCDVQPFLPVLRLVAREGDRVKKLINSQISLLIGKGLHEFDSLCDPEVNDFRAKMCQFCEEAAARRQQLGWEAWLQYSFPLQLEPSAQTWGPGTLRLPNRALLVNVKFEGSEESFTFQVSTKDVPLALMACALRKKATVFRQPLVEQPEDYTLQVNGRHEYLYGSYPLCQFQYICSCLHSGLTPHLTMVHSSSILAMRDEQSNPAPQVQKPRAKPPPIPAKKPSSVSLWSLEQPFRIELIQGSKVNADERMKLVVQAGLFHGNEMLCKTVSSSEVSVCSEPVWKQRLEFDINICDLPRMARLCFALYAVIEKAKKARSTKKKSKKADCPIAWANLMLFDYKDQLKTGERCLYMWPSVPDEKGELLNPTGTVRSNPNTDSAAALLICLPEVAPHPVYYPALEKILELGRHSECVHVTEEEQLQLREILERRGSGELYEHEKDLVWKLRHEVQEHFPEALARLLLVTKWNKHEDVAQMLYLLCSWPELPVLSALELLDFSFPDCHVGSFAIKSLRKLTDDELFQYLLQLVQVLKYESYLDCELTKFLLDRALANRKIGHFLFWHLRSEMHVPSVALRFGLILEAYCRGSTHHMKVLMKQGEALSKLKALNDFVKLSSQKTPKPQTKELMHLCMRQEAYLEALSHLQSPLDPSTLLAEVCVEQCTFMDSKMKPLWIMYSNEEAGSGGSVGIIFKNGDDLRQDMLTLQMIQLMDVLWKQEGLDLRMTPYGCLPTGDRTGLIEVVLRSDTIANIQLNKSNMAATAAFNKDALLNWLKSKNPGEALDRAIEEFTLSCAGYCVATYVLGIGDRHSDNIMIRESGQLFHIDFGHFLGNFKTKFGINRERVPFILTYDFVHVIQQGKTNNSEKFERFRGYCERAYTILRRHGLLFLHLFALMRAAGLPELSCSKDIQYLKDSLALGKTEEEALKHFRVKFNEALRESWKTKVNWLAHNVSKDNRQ
T3 sequence (P27986 whole entry partner): as the sequence (P27986 whole entry partner) above
Protocol: as §3, with “(p110δ/p85α)” for “p110α/p85α”, “phosphatidylinositol-4,5-bisphosphate” for “phosphatidylinositol 4,5-bisphosphate”, “MgATP mix.” for “ATP solution.”, “streptavidin-allophycocyanin.” for “streptavidin allophycocyanin.”
as §2

U87MG glioblastoma cells = assay: Tumor xenograft model (U87MG), tumor growth inhibition; format: in vivo, athymic nude mice
Protocol: The efficacy of compounds disclosed herein was evaluated in a standard murine model of tumorigenesis. Human tumor cells (U87MG glioblastoma cells from ATCC) were expended in culture, harvested, and injected subcutaneously onto the rear flank of 6-7 week old female athymic nude mice (BALB/cA nu/nu, Hunan SLAC Laboratory Animal, Co.) (n=6-10 for vehicle group and for each dosing group). When tumors reached a volume of 100-250 mm^3, animals were randomly divided into vehicle control (for example, 5% DMSO+70% Captisol® (30%), 7% HCl (pH1), 18% Captisol® (30%); or 7% DMSO, 7% HCl (pH1), 70% Captisol® (30%), 16% Captisol® (30%), or the like) and compound groups. Subsequent administration of compound by oral gavage begins anywhere from day 0 to day 15 post tumor cell challenge and generally continues with once a day for the duration of the experiment.
Progression of tumor growth is assessed by tumor volumes and recorded as a function of time. The long (L) and short (W) axes of the subcutaneous tumors were measured with calipers twice weekly, and the tumor volume (TV) calculated as (L×W^2)/2). TGI was calculated from the difference between the median tumor volumes of vehicle-treated and drug-treated mice, expressed as a percentage of the median tumor volume of the vehicle-treated control group, by the following relation:
Initial statistical analysis is done by repeated measures analysis of variance (RMANOVA), followed by Scheffe psot hoc testing for multiple comparisons. Vehicle alone (5% DMSO+70% Captisol® (30%), 7% HCl (pH1), 18% Captisol® (30%); or 7% DMSO, 7% HCl (pH1), 70% Captisol® (30%), 16% Captisol® (30%), or the like) is the negative control.

[2] = Pharmacokinetic profiles in dogs after intravenous and oral administration; format: in vivo; conditions: Dog; for F: iv dose 1 mg/kg, oral dose generally 10 mg/kg; for Clearance (CL) / AUC(0-t) / half-life / Vd: iv dosing 1 mg/kg; for AUC(0-t) / half-life / Vd: plasma; for Vd: read-out: Vss
Protocol: as §1

[3] = Pharmacokinetic profiles in monkeys after intravenous and oral administration; format: in vivo; conditions: Monkey; for F: iv dose 1 mg/kg, oral dose generally 10 mg/kg; for Cl/F / AUC(0-t) / half-life / Vd: iv dosing 1 mg/kg; for AUC(0-t) / half-life / Vd: plasma; for Vd: read-out: Vss
Protocol: as §1

| F ([1]; iv dose 1 mg/kg) | Cl/F ([1]; iv dosing 1 mg/kg) | AUC(0-t) ([1]; iv dosing 1 mg/kg) | half-life ([1]; iv dosing 1 mg/kg) | Vd ([1]; iv dosing 1 mg/kg) | IC50 (mTOR (h)) | IC50 (PI3K p110α/p85α (h)) | IC50 (PI3K (p110δ/p85α) (h)) | F [2] | Clearance (CL) [2] | AUC(0-t) [2] | half-life [2] | Vd [2] | F [3] | Cl/F [3] | AUC(0-t) [3] | half-life [3] | Vd [3] | Structure (SMILES) | TGI % U87MG (U87MG glioblastoma cells; 3 mg/kg oral gavage, 12 days) | TGI % U87MG (U87MG glioblastoma cells; 10 mg/kg oral gavage, 12 days) | other results |
| --- | --- | --- | --- | --- | --- | --- | --- | --- | --- | --- | --- | --- | --- | --- | --- | --- | --- | --- | --- | --- | --- |
| 99.77% | 1.67 mL/min/kg | 19400 ng·h/mL | 2.65 h | 0.35 L/kg | 31 nM | 2 nM | 3 nM |  |  |  |  |  |  |  |  |  |  | COc1ncc(-c2ccc3ncc(C#CC(C)O)n3c2)cc1NS(=O)(=O)c1ccc(F)cc1F (stereo not drawn) [Ex. 16, 2,4-difluoro N (5 (3 (3 hydroxybut-1-yn-1-yl)imidazo[1,2-a]pyridin-6-yl)-2-methoxypyridin-3-yl)benzenesulfonamide] | 14% | 43% |  |
|  |  |  |  |  | 34 nM | 2 nM | 1 nM | 108.5% | 7.67 mL/min/kg | 2170 ng·h/mL | 0.74 h | 0.37 L/kg | 55.4% | 5.33 mL/min/kg | 3200 ng·h/mL | 5.89 h | 0.76 L/kg | COc1ncc(-c2ccc3ncc(C#CCO)n3c2)cc1NS(=O)(=O)c1ccc(F)cc1F [Ex. 15, 2,4-difluoro-N-(5-(3-(3-hydroxyprop-1-yn-1-yl)imidazo[1,2-a]pyridin-6-yl)-2-methoxypyridin-3-yl)benzenesulfonamide] | 28% | 51% | F ([1]; iv dose 2 mg/kg): 97.0%; Cl/F ([1]; iv dosing 2 mg/kg): 1.3 mL/min/kg; AUC(0-t) ([1]; iv dosing 2 mg/kg): 25600 ng·h/mL; half-life ([1]; iv dosing 2 mg/kg): 3.14 h; Vd ([1]; iv dosing 2 mg/kg): 0.22 L/kg |
| 104.2% | 2.33 mL/min/kg | 7490 ng·h/mL | 4.1 h | 0.37 L/kg | 9 nM | 2 nM | 2 nM | 44.2% | 6.17 mL/min/kg | 2750 ng·h/mL | 0.73 h | 0.31 L/kg | 27.3% | 7.5 mL/min/kg | 2370 ng·h/mL | 3.59 h | 0.39 L/kg | COc1ncc(-c2ccc3ncc(C#CCO)n3n2)cc1NS(=O)(=O)c1ccc(F)cc1F [Ex. 9, 2,4-difluoro-N-(5-(3-(3-hydroxyprop-1-yn-1-yl)imidazo[1,2-b]pyridazin-6-yl)-2-methoxypyridin-3-yl)benzenesulfonamide] | 26% | 62% | TGI % U87MG (U87MG glioblastoma cells; 1 mg/kg oral gavage, 12 days): 23% |
|  |  |  |  |  | 3 nM | 2 nM | 3 nM | 108.5% | 9 mL/min/kg | 1840 ng·h/mL | 0.57 h | 0.37 L/kg | 69.8% | 3.67 mL/min/kg | 4640 ng·h/mL | 6.05 h | 0.64 L/kg | COc1ncc(-c2ccc3ncc(C#N)n3n2)cc1NS(=O)(=O)c1ccc(F)cc1F [Ex. 24, N-(5-(3-cyanoimidazo[1,2-b]pyridazin-6-yl)-2-methoxypyridin-3-yl)-2,4-difluorobenzenesulfonamide] |  |  | F ([1]; iv dose 2 mg/kg): 108%; Cl/F ([1]; iv dosing 2 mg/kg): 4 mL/min/kg; AUC(0-t) ([1]; iv dosing 2 mg/kg): 8400 ng·h/mL; half-life ([1]; iv dosing 2 mg/kg): 3.06 h; Vd ([1]; iv dosing 2 mg/kg): 0.55 L/kg; TGI % U87MG (U87MG glioblastoma cells; 0.3 mg/kg oral gavage, 9 days): 53%; TGI % U87MG (U87MG glioblastoma cells; 1 mg/kg oral gavage, 9 days): 84%; TGI % U87MG (U87MG glioblastoma cells; 3 mg/kg oral gavage, 9 days): 108% |
